Reference: patent US12577229B2, “Substituted {5-methoxy-6-[(5-methoxypyridin-2-yl)methoxy]pyridin-3-yl} methyl compounds as CSF-1R inhibitors” (Eli Lilly and Company, priority 2020, dated 2026)

How the values were obtained:
[1] = tested on: P301S mouse tauopathy model; details: cited from earlier work
[2] = tested on: 5xFAD model of Alzheimer's disease; details: cited from earlier work
[3] = target: T1, human PDGFRβ (Homo sapiens, UniProt P09619); assay: DiscoverX PathHunter RTK cell based functional assay, PDGFRβ; details: PDGFRβ U2OS cells, 3 nM PDGF-BB agonist, n=4
T1 construct: enzyme fragment for Enzyme Fragment Complementation (β-galactosidase fragment); host or cells: U2OS
T1 sequence (P09619 33-1106): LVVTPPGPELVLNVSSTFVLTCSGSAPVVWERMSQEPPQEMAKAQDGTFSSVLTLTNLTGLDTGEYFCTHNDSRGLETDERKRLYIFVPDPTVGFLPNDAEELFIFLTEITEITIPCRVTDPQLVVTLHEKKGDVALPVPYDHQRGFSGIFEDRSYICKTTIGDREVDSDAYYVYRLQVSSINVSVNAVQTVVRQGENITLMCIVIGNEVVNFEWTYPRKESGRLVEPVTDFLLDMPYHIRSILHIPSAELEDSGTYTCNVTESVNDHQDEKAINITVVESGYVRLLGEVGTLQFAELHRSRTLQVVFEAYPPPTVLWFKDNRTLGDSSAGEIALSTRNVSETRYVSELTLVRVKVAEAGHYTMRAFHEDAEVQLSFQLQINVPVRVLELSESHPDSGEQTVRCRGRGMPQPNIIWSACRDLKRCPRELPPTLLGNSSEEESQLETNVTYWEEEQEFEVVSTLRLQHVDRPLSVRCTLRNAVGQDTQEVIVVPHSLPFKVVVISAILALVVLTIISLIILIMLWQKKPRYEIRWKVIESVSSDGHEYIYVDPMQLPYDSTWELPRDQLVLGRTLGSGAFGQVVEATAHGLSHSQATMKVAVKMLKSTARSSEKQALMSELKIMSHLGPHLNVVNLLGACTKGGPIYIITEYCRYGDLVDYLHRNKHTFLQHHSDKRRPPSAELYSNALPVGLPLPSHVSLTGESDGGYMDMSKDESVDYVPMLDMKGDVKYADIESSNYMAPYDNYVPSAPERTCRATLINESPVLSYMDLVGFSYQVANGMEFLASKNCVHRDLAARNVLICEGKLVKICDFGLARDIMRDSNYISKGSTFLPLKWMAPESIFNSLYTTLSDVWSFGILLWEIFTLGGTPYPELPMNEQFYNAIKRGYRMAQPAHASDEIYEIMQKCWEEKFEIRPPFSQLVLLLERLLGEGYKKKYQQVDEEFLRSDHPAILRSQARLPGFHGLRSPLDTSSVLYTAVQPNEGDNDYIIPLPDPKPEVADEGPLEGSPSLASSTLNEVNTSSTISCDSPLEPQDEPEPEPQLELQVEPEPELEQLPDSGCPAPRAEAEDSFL
Method: DiscoverX® PathHunter Receptor Tyrosine Kinase (RTK) Cell Based Functional Assay
For in vitro PDGFRβ (Accession NM_002609, Part No. 93-0493C3) and c-Kit (Accession NM_000222, Part No. 93-0853C3) cellular assays, the test compounds are prepared in DMSO to make up a 10 mM stock solution. The stock solution is serially diluted two-fold in DMSO to obtain a twenty-point curve with final compound concentrations ranging from 20.0 μM to 0.019 nM.
DiscoverX® PathHunter Receptor Tyrosine Kinase (RTK) cell based functional assays are utilized to profile compounds using Enzyme Fragment Complementation technology with human PDGFRβ U2OS cells and human c-Kit U2OS cells. Cells are continuously cultured from cell passage 5 up to cell passage 30 in AssayComplete™ Cell Culture Kit-103 (DiscoverX®, 92-3103G) media containing 500 μg/mL G418 and 250 μg/mL hygromycin. PDGFRβ or c-Kit cells (27 μL) in media (DiscoverX®, 93-0563R16B) are seeded at 1.5×10^4 cells/well into all wells of a Corning 384 poly-d-lysine coated white plate. The cell plates are then incubated overnight at 37° C., 5.0% CO2. Compound serial dilutions are then added to rows A-P, columns 3-22. DMSO and inhibitor controls are added to rows A-P, columns 1-2 and 23-24, respectively. Cell plates with compound or controls are incubated for 1 hour at 37° C., 5.0% CO2. […] After 1 hour, cell plates are read on a chemiluminescence capable plate reader. […]

[4] = target: KIT (Homo sapiens, UniProt P10721); assay: biochemical
Sequence of KIT (P10721 26-976): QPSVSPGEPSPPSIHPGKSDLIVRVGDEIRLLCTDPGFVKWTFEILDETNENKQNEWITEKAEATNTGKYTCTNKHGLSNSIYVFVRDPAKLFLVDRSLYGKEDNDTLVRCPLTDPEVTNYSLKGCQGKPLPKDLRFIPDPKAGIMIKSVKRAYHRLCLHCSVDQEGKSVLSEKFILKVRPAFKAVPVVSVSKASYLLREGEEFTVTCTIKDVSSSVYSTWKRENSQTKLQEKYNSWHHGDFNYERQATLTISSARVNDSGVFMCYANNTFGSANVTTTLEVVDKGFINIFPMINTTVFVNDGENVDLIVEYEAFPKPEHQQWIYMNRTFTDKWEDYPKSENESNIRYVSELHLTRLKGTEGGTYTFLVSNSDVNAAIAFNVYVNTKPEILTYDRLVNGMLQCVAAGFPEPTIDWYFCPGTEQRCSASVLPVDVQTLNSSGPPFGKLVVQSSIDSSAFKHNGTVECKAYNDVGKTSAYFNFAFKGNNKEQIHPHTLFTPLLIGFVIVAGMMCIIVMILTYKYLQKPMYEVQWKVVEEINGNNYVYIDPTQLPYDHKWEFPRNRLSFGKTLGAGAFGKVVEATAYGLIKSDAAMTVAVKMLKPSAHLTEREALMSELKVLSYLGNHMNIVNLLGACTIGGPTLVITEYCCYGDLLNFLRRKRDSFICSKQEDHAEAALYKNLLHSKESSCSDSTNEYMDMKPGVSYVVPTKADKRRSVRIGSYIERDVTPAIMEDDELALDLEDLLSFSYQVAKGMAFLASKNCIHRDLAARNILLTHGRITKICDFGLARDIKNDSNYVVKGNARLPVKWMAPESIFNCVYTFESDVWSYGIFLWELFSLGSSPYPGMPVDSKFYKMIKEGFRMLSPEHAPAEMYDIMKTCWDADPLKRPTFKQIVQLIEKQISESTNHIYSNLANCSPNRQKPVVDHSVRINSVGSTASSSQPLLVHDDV
Method: (§1) DiscoverX® KINOMEscan™ In Vitro Kinase Competition Binding Assay
(§2) Compound activity (% binding) is monitored by measuring the amount of kinase captured in test versus control samples by using a qPCR method that detects the associated DNA label. The binding activity is converted to % inhibition and an IC50 value is determined for CSF-1R fold-selectivity assessment.
(§3) Assays to monitor binding to a 468-kinase panel are conducted at DiscoverX® Corporation (Fremont, CA). Test compound is provided as a 10 mM stock in 100% DMSO and evaluated at […] final concentrations. Kinases are tagged with DNA for qPCR detection. […] The liganded beads are blocked with excess biotin and washed with blocking buffer (Pierce SeaBlock, 1% BSA, 0.05% Tween 20 and 1 mM DTT) to remove unbound ligand and to reduce nonspecific binding. […] Test compound is prepared as a 40×stock in 100% DMSO and directly diluted into the assay. All reactions are performed in polypropylene 384-well plates in a final volume of 0.02 mL. […] The kinase concentration in the eluates is measured by qPCR. […]
(§4) The percent inhibition values, and the 3-point concentration response data are subsequently determined and analyzed with NGR software, and non-standard IC50 values are calculated from the resulting curve fit. […]

[5] = target: T2, KIT V559D (Homo sapiens, UniProt P10721, V559D); assay: DiscoverX KINOMEscan kinase competition binding assay, KIT V559D; details: 2 μM compound concentration
T2 construct: purchased DiscoverX Corporation (Fremont, CA), contract assay
T2 sequence (P10721 26-976 V559D): as the sequence (P10721 26-976) above, with V534D counted along it
Method: as §1, §2, §3, §4

[6] = target: T3, KIT L576P (Homo sapiens, UniProt P10721, L576P); assay: DiscoverX KINOMEscan kinase competition binding assay, KIT L576P; details: 2 μM compound concentration
T3 construct: purchased DiscoverX Corporation (Fremont, CA), contract assay
T3 sequence (P10721 26-976 L576P): as the sequence (P10721 26-976) above, with L551P counted along it
Method: as §1, §2, §3, §4

[7] = target: T4, KIT V559D V654A (Homo sapiens, UniProt P10721, V559D/V654A); assay: DiscoverX KINOMEscan kinase competition binding assay, KIT V559D V654A; details: 2 μM compound concentration
T4 construct: purchased DiscoverX Corporation (Fremont, CA), contract assay
T4 sequence (P10721 26-976 V559D/V654A): as the sequence (P10721 26-976) above, with V534D, V629A counted along it
Method: as §1, §2, §3, §4

[8] = target: T5, PDGFRB (Homo sapiens, UniProt P09619); assay: DiscoverX KINOMEscan kinase competition binding assay, PDGFRB
T5 construct: purchased DiscoverX Corporation (Fremont, CA), contract assay
T5 sequence (P09619 33-1106): as the sequence (P09619 33-1106) above
Method: as §1, §2, §3, §4

[9] = tested on: 468-kinase panel; assay: DiscoverX KINOMEscan kinase competition binding assay, whole panel; parameters: species or system human; details: of 468 protein kinases, 2 μM compound concentration
Method: as §1, §2
Assays to monitor binding to a 468-kinase panel are conducted at DiscoverX® Corporation (Fremont, CA). […] Kinases are tagged with DNA for qPCR detection. […] The liganded beads are blocked with excess biotin and washed with blocking buffer (Pierce SeaBlock, 1% BSA, 0.05% Tween 20 and 1 mM DTT) to remove unbound ligand and to reduce nonspecific binding. […] Test compound is prepared as a 40×stock in 100% DMSO and directly diluted into the assay. All reactions are performed in polypropylene 384-well plates in a final volume of 0.02 mL. […] The kinase concentration in the eluates is measured by qPCR. The results for primary screen binding interactions are reported as ‘% Ctrl’, where lower numbers indicate stronger hits in the matrix.
Percent of control (% Ctrl) calculation: […]
as §4

## CC1(C)CC=C(c2nc(C3CC(C)(C)OC(C)(C)C3)ccc2NC(=O)c2nc(C#N)c[nH]2)CC1 [JNJ-40346527]
[1]
  effect on tau phosphorylation and aggregation: inhibit tau phosphorylation and aggregation

## FC(F)(F)c1ccc(CNc2ccc(Cc3c[nH]c4ncc(Cl)cc34)cn2)cn1 [PLX3397]
[2]
  effect on amyloid pathology: Reductions in intraneuronal amyloid, neuritic plaque formation and pre-fibrillar and fibrillar oligomers
  effect on cognitive function: improvements in cognitive function

## COc1ccc(COc2ncc(Cc3ccnc(-c4cnn(C)c4)n3)cc2OC)nc1 [Example 1, 4-({5-Methoxy-6-[(5-methoxypyridin-2-yl)methoxy]pyridin-3-yl}methyl)-2-(1-methyl-1H-pyrazol-4-yl)pyrimidine]
[3]
  IC50: > 20 µM
[4]
  inhibition at 2 µM: 99.4%
[5]
  inhibition at 2 µM: 99.5%
[6]
  inhibition at 2 µM: 96.4%
[7]
  inhibition at 2 µM: 84%
[8]
  inhibition at 2 µM: 90.8%
[9]
  number of kinases showing less than 35% control activity (or >65% inhibition): 3 kinases
